Measured values: ChEMBL document CHEMBL2311426, “Synthesis and antibacterial activity of novel water-soluble nocathiacin analogs” (Bioorg Med Chem Lett, 2013)
≈ marks a conversion by molar mass, not a printed value.

Legend:
Format in all cases: functional
[1] = system: Staphylococcus aureus; assay: Antibacterial activity against Staphylococcus aureus MB2865 infected in iv dosed mouse assessed as >= log10 cfu kidney burden reduction administered bid after 24 hrs
[2] = system: Enterococcus faecalis; assay: Antibacterial activity against Enterococcus faecalis C21560 by turbidity method; settings: read-out: MIC100
[3] = system: Streptococcus pneumoniae; assay: Antibacterial activity against Streptococcus pneumoniae CL2883 by turbidity method; settings: read-out: MIC100
[4] = system: Staphylococcus aureus; assay: Antibacterial activity against Staphylococcus aureus MB2865 by turbidity method; settings: read-out: MIC100
[5] = system: Staphylococcus aureus; assay: Ratio of vancomycin ED99 to compound ED99 for Staphylococcus aureus MB2865 infected in iv dosed mouse
[6] = system: Staphylococcus aureus; assay: Antibacterial activity against Staphylococcus aureus MB2865 infected in mouse assessed as log kidney burden reduction administered at 4 mg/kg, iv bid after 24 hrs relative to control

CO/C(C)=C1/NC(=O)[C@H]([C@@H](C)O)NC(=O)c2csc(n2)-c2cc(O)c(-c3nc(CNC(=O)CCN4CCOCC4)cs3)nc2-c2csc(n2)[C@@H]2COC(=O)c3c4c5c(cccc5n3O)COC(=O)[C@@H](O[C@H]3C[C@](C)(O)[C@H](N(C)C)[C@H](C)O3)[C@@H](OC4)[C@H](NC(=O)c3csc1n3)c1nc(cs1)C(=O)N2
ED99 [1]: >0.5 mg/kg | MIC [2]: 0.12 µg/mL (≈ 0.0802 µM) | MIC [3]: 7.5 ng/mL (≈ 0.00501 µM) | MIC [4]: 0.06 µg/mL (≈ 0.0401 µM)

CO/C(C)=C1/NC(=O)[C@H]([C@@H](C)O)NC(=O)c2csc(n2)-c2cc(O)c(-c3nc(CNC(=O)C(C)NC(N)=O)cs3)nc2-c2csc(n2)[C@@H]2COC(=O)c3c4c5c(cccc5n3O)COC(=O)[C@@H](O[C@H]3C[C@](C)(O)[C@H](N(C)C)[C@H](C)O3)[C@@H](OC4)[C@H](NC(=O)c3csc1n3)c1nc(cs1)C(=O)N2 (some centres undefined)
Ratio [5]: 200 | ED99 [1]: 0.02 mg/kg | MIC [2]: 0.25 µg/mL (≈ 0.17 µM) | MIC [3]: 3.8 ng/mL (≈ 0.00259 µM) | MIC [4]: 0.06 µg/mL (≈ 0.0409 µM)

CO/C(C)=C1/NC(=O)[C@H]([C@@H](C)O)NC(=O)c2csc(n2)-c2cc(O)c(-c3nc(CNC(=O)CN4CCN(C)CC4)cs3)nc2-c2csc(n2)[C@@H]2COC(=O)c3c4c5c(cccc5n3O)COC(=O)[C@@H](O[C@H]3C[C@](C)(O)[C@H](N(C)C)[C@H](C)O3)[C@@H](OC4)[C@H](NC(=O)c3csc1n3)c1nc(cs1)C(=O)N2
CFU [6]: 1.08 | ED99 [1]: 0.28 mg/kg | MIC [2]: 0.09 µg/mL (≈ 0.0602 µM) | MIC [3]: 0.7 ng/mL (≈ 0.000468 µM) | MIC [4]: 0.0375 µg/mL (≈ 0.0251 µM)

CO/C(C)=C1/NC(=O)[C@H]([C@@H](C)O)NC(=O)c2csc(n2)-c2cc(O)c(-c3nc(CNC(=O)CN4CCOCC4)cs3)nc2-c2csc(n2)[C@@H]2COC(=O)c3c4c5c(cccc5n3O)COC(=O)[C@@H](O[C@H]3C[C@](C)(O)[C@H](N(C)C)[C@H](C)O3)[C@@H](OC4)[C@H](NC(=O)c3csc1n3)c1nc(cs1)C(=O)N2
ED99 [1]: >0.5 mg/kg | MIC [2]: 0.015 µg/mL (≈ 0.0101 µM) | MIC [3]: 0.46 ng/mL (≈ 0.00031 µM) | MIC [4]: 0.0075 µg/mL (≈ 0.00506 µM)

CO/C(C)=C1/NC(=O)[C@H]([C@@H](C)O)NC(=O)c2csc(n2)-c2cc(O)c(-c3nc(CNC(=O)CN(C)C)cs3)nc2-c2csc(n2)[C@@H]2COC(=O)c3c4c5c(cccc5n3O)COC(=O)[C@@H](O[C@H]3C[C@](C)(O)[C@H](N(C)C)[C@H](C)O3)[C@@H](OC4)[C@H](NC(=O)c3csc1n3)c1nc(cs1)C(=O)N2
ED99 [1]: >0.5 mg/kg | MIC [2]: 0.25 µg/mL (≈ 0.174 µM) | MIC [3]: 7.5 ng/mL (≈ 0.00521 µM) | MIC [4]: 0.06 µg/mL (≈ 0.0417 µM)

CO/C(C)=C1/NC(=O)[C@H]([C@@H](C)O)NC(=O)c2csc(n2)-c2cc(O)c(-c3nc(CNCc4cncnc4)cs3)nc2-c2csc(n2)[C@@H]2COC(=O)c3c4c5c(cccc5n3O)COC(=O)[C@@H](O[C@H]3C[C@](C)(O)[C@H](N(C)C)[C@H](C)O3)[C@@H](OC4)[C@H](NC(=O)c3csc1n3)c1nc(cs1)C(=O)N2
ED99 [1]: 0.13 mg/kg | MIC [2]: 0.03 µg/mL (≈ 0.0207 µM) | MIC [3]: 0.7 ng/mL (≈ 0.000484 µM) | MIC [4]: 0.0225 µg/mL (≈ 0.0156 µM)

CO/C(C)=C1/NC(=O)[C@H]([C@@H](C)O)NC(=O)c2csc(n2)-c2cc(O)c(-c3nc(CNCCO)cs3)nc2-c2csc(n2)[C@@H]2COC(=O)c3c4c5c(cccc5n3O)COC(=O)[C@@H](O[C@H]3C[C@](C)(O)[C@H](N(C)C)[C@H](C)O3)[C@@H](OC4)[C@H](NC(=O)c3csc1n3)c1nc(cs1)C(=O)N2
ED99 [1]: 0.32 mg/kg | MIC [2]: 0.06 µg/mL (≈ 0.0429 µM) | MIC [3]: 0.46 ng/mL (≈ 0.000329 µM) | MIC [4]: 0.03 µg/mL (≈ 0.0215 µM)

CO/C(C)=C1/NC(=O)[C@H]([C@@H](C)O)NC(=O)c2csc(n2)-c2cc(O)c(-c3nc(CN(C)C)cs3)nc2-c2csc(n2)[C@@H]2COC(=O)c3c4c5c(cccc5n3O)COC(=O)[C@@H](O[C@H]3C[C@](C)(O)[C@H](N(C)C)[C@H](C)O3)[C@@H](OC4)[C@H](NC(=O)c3csc1n3)c1nc(cs1)C(=O)N2
ED99 [1]: >0.5 mg/kg | MIC [2]: 0.0075 µg/mL (≈ 0.00542 µM) | MIC [3]: 0.95 ng/mL (≈ 0.000687 µM) | MIC [4]: 0.03 µg/mL (≈ 0.0217 µM)

CO/C(C)=C1/NC(=O)[C@H]([C@@H](C)O)NC(=O)c2csc(n2)-c2cc(O)c(-c3nc(CN)cs3)nc2-c2csc(n2)[C@@H]2COC(=O)c3c4c5c(cccc5n3O)COC(=O)[C@@H](O[C@H]3C[C@](C)(O)[C@H](N(C)C)[C@H](C)O3)[C@@H](OC4)[C@H](NC(=O)c3csc1n3)c1nc(cs1)C(=O)N2
ED99 [1]: >0.5 mg/kg | MIC [2]: 0.06 µg/mL (≈ 0.0443 µM) | MIC [3]: 0.47 ng/mL (≈ 0.000347 µM) | MIC [4]: 0.077 µg/mL (≈ 0.0568 µM)

CN[C@H](CC(C)C)C(=O)N[C@H]1C(=O)N[C@@H](CC(N)=O)C(=O)N[C@H]2C(=O)N[C@H]3C(=O)N[C@H](C(=O)N[C@H](C(=O)O)c4cc(O)cc(O)c4-c4cc3ccc4O)[C@H](O)c3ccc(c(Cl)c3)Oc3cc2cc(c3O[C@@H]2O[C@H](CO)[C@@H](O)[C@H](O)[C@H]2O[C@H]2C[C@](C)(N)[C@H](O)[C@H](C)O2)Oc2ccc(cc2Cl)[C@H]1O [VANCOMYCIN]
ED99 [1]: 0.17 mg/kg
